Laboratory results from patent publication US8946381B2, “Compositions and uses thereof for the treatment of wounds” (Phylogica Limited, priority 2006, dated 2015).
“Also recorded” adds a separate entry of the source.

Tests used:
[1] = system: full-thickness burn wound; assay: full-thickness burn wound model in mice, gross morphology and re-epithelialisation; format: in vivo, C57/B16 mice
Description: 8 week old C57/B16 mice were purchased from the Animal Resource Center, Murdoch University, Western Australia and used for all experiments. All experiments were approved by the necessary institutional animal ethics committees and were performed in accordance with the National Health and Medical Research Council (NHMRC) Australian Code of Practice for the Care and Use of Animals for Scientific Purposes.
(§1) A full-thickness burn wound was generated in a murine subject using a modified protocol based on a model previously described (Bruen et al., J Surg Res, 120: 12-20, 2004). Briefly, mice (n=34) were anesthetised (xylazine (10 mg/kg) and ketamine (100 mg/kg)) and subsequently given a full-thickness 10 mm diameter burn by contact with a brass rod (65 g) heated to 95° C. and applied for 9 seconds. 10 control animals were sacrificed post-burn, and histology confirmed all burns were full-thickness. The remaining animals (n=24) were re-hydrated and given analgesics subcutaneously immediately post-burn. The wounds were then dressed using a Tegapore™ membrane dressing (3M Healthcare Ltd) and either phosphate buffered saline (PBS) or PBS containing 20 μM peptide were instilled into the Tegapore™ and administered topically. The mice were then wrapped with a secondary absorbent dressing with minimal pressure so as not to constrict breathing and to allow free movement of the animal after recovery. Ten minutes post-injury, dressings were removed and animals allowed to recover from anesthesia in their cages with feed and water provided ad libitum.
Wounds were harvested on post-injury days 1, 3, 7 and 11 (n=3 for each time-point for both treated and control groups). Each wound was bisected along the cranial-caudal axis and one half of the tissue fixed in 4% paraformaldehyde solution and the other half stored as frozen tissue. Haematoxylin and Eosin stained sections were used to determine the quality of wound healing.
Progress of re-epithelialisation was quantitated by measuring distance between leading epithelial edges using an eye-piece graticule on histological slides. Difference between treated and control wounds was analysed using standard two-tail t-TEST for two-samples assuming unequal variance. p<0.05 is defined as the level of statistical significance.

fibroblast cells = assay: MTT colorimetric proliferation assay, fibroblasts; format: cell-based; settings: 100 nm, 1 μM or 10 μM, 24, 48 or 72 hours
Description: (§2) Cultures of keratinocytes (HaCaT cells) or fibroblasts were cultured in a microwell plate the presence of a peptide analog comprising the amino acid sequence set forth in SEQ ID NO: 104 at a concentration of 100 nm, 1 μM or 10 μM. Following an incubation period 24 hours, 48 hours, or 72 hours, cells were incubated in the presence of MTT for a sufficient time for a mitochondrial dehydrogenase enzyme from viable cells to cleave the tetrazolium rings of the pale yellow MTT and form dark blue formazan crystals. Cells were then solubilized and the level of […] crystals determined using a microtitre plate reader at 492 nm.

HaCaT keratinocytes = assay: MTT colorimetric proliferation assay, keratinocytes; format: cell-based; settings: 100 nm, 1 μM or 10 μM, 24, 48 or 72 hours
Description: as §2

[2] = system: apoptosing epidermal cells surrounding the burn injury; assay: TUNEL assay on burn wound tissue sections; format: in vivo, C57/B16 mice; settings: one day after burning
Description: as §1, with “Ten minutes post-injury, dressings were removed and animals allowed to recover from anesthesia in their cages with feed and water provided ad libitum.” left out
Tissue sections were labelled using TUNEL (Tdt-mediated dUTP Nick End Labelling) assay as previously described 13. […] Intensity of TUNEL staining was quantitated using Image J software (available from The National Institutes of Health, USA). Intensity of staining of individual nuclei were measured and normalised against the background. […]

## H-rerrsssqiGGsrisqyaGrrrqrrkkrG-NH2 [SEQ ID NO: 104]
[1]; day 7 post-burn
  gross morphology of wound: Early reepithelialization is present and separation of the eschar evident
[1]; day 7 post-burn, 20 μM peptide in PBS topical
  gap without epidermis (not re-epithelialized): 2 mm
[1]; day 11 post-burn, 20 μM peptide in PBS topical
  re-epithelialization of wound: re-epithelialized by day 11; also recorded: all the treated wounds are covered; also recorded: completely re-epithelialized
[1]; day 11 post-burn, 20 μM peptide in PBS topically via Tegapore dressing for ten minutes
  eschar diameter: < 2 mm
[1]; day 11 post-burn, histology
  scarring (de novo hair follicle morphogenesis): scarring has not occurred
[1]; within 24 hours post-injury, 20 μM peptide in PBS topical
  wound size between leading epidermal edges: 10 mm
Fibroblast cells
  cellular proliferation (MTT): did not stimulate proliferation
HaCaT keratinocytes
  cellular proliferation (MTT) vs untreated cells: increased cellular proliferation rates; also recorded: enhanced and/or induced proliferation
[2]; 500 μm from the wound edge
  TUNEL staining intensity vs control: marked difference in intensity
[2]; 1500 μm from the wound edge
  TUNEL positive staining in epidermis: complete lack of positive staining
